Results on one molecule are retold here after publication PMC12348844, “Anti-Trypanosoma cruzi Potential of New Pyrazole-Imidazoline Derivatives” (Molecules, 2025).

Where two headings read alike, the source gives them in different places.

The subject of assay [1] is T. cruzi Dm28c-Luc trypomastigotes. Kind of assay: Anti-T. cruzi in vitro assay, trypomastigotes (luminescence). Format: cell-based. The conditions noted are these: Trypanosoma cruzi, 24 h, mean ± SD. The procedure: (§1) The genetically modified Trypanosoma cruzi, clone Dm28c (TcI), expressing luciferase (Dm28c-Luc), was kindly provided by Dr. Cristina Henriques from Oswaldo Cruz Institute—Fiocruz. The parasites were maintained using Vero cell cultures in RPMI 1640 medium enriched with 10% FBS. At 4 days post-infection (dpi), the trypomastigotes released into the culture supernatant were harvested, subjected to centrifugation at 800× g for 20 min at 4 °C, and quantified with a Neubauer chamber. The isolated trypomastigotes were subsequently used for phenotypic screening, drug efficacy assessments employing a 3D cardiac model, washout experiments to evaluate reversibility, drug combination studies, and enzymatic assays.
Drug susceptibility assays were performed on T. cruzi Dm28c-Luc, a genetically engineered parasite expressing luciferase. The drug screening used both trypomastigotes and intracellular amastigotes. Trypomastigotes (1 × 10^6 parasites/well) were added to white 96-well plates with clear bottoms. […] The luminescence was measured using a Glomax Multi-Detection plate reader (Promega Corporation, Madison, WI, USA).

Assay [2] has as its system T. cruzi Dm28c-Luc intracellular amastigotes. The assay is described as follows: Anti-T. cruzi in vitro assay, intracellular amastigotes in Vero cells (luminescence). Format: cell-based, Trypanosoma cruzi. The conditions noted are these: for IC50: Vero. The procedure:
as §1
To evaluate the effect of pyrazole-imidazoline derivatives against intracellular amastigotes, Vero cells (1.5 × 10^4 cells/well) were cultured in a white 96-well plate with a clear bottom and subsequently infected with T. cruzi Dm28c-Luc at a 10:1 parasite-to-host cell ratio for 24 h. […] Parasite viability was measured by luminescence following the addition of luciferin (300 µg/mL). Background measurements (non-infected cultures incubated with luciferin, as well as luciferin-only controls) were performed to ensure the signal specifically originates from viable parasites. The IC50 and IC90 values, denoting the concentrations that achieve 50% and 90% reductions in viable parasites, respectively, were calculated using GraphPad Prism 8.2.1 software. Additionally, the selectivity index (SI) was calculated as the cytotoxic concentration (CC50) ratio in mammalian cells to the IC50 against T. cruzi, providing insight into the therapeutic window. Potency against intracellular amastigotes was evaluated using the formula 6—Log10 (IC50).

Assay [3] deals with T. cruzi Dm28c-Luc in cardiac spheroids. Kind of assay: Efficacy in T. cruzi-infected 3D cardiac microtissues. It is filed as cell-based. The conditions noted are these: Trypanosoma cruzi, 72 h, read-out: inhibition of parasite load in infected cardiac spheroids. The procedure:
Three-dimensional (3D) heart muscle cell cultures were obtained as previously described. Briefly, heart muscle cells were isolated from 18-day-old Swiss Webster mouse fetuses. The ventricular tissue was fragmented and enzymatically dissociated using a trypsin and collagenase type II solution. The isolated cells were seeded at a density of 2.5 × 10^4 cells/well in 96-well U-bottom microplates previously coated with 1% agarose. The cells were cultured in Dulbecco’s modified Eagle Medium (DMEM) enriched with 10% FBS, 2.5 mM CaCl2, 1 mM L-glutamine, 2% chicken embryo extract, and a cocktail of antibiotics. The cultures were maintained at 37 °C in a 5% CO2 atmosphere. […]
The efficacy of the promising candidate was assessed using cardiac 3D microtissues. […] At the end of the experiment, luminescence was measured using a Glomax Multi-Detection plate reader (Promega Corporation, Madison, WI, USA) after adding luciferin solution, with results reported in arbitrary luminescence units (A.L.U). To enhance reliability and provide qualitative, orthogonal validation of these luminescence readings, we employed confocal fluorescence microscopy using 4′,6′-diamidino-2-phenylindole (DAPI) staining. […] Imaging was performed using a Zeiss LSM710 confocal fluorescence microscope (Carl Zeiss, Baden–Württemberg, Germany). […]

The subject of the next assay is T. cruzi (Dm28c-Luc). The assay is described as follows: Reversibility (washout) assay in T. cruzi-infected Vero cells. Format: cell-based, Trypanosoma cruzi. The conditions noted are these: for parasite load of cell monolayer at 21 dpi (luminescence): untreated 5 × 10^5 A.L.U. Here is the method: After treatment, the cultures were thoroughly washed, and parasite recrudescence was evaluated over an extended period of 10 days in RPMI medium supplemented with 10% fetal bovine serum (FBS). Culture supernatants were collected at intervals, and the luminescence signal indicative of trypomastigote release was assessed using a Glomax Multi-Detection plate reader (Promega Corporation, Madison, WI, USA) following the addition of luciferin every 2–3 days. At the experiment’s conclusion, the infection profile of the monolayer was also examined. Cells were fixed with PFA for 20 min at 4 °C, then stained with DAPI for microscopy analysis. Luminescence data were expressed in arbitrary luminescent units (A.L.U), and fluorescence images were acquired using the ImageXpress Micro XLS high-content screening (HCS) system (Molecular Devices, Sunnyvale, CA, USA).

Assay [4] concerns T. cruzi cysteine protease. Kind of assay: Cysteine protease activity in trypomastigote protein extract (Z-Phe-Arg-AMC). It is filed as biochemical, Trypanosoma cruzi. Particulars: 90 min, 37 °C, 33.3, 100 and 300 µM tested. The procedure:
Total proteins from T. cruzi Dm28c-Luc were extracted using a lysis buffer [100 mM Tris-HCl pH 8.0, 150 mM NaCl, 10% glycerol, 0.5% Triton X-100]. The protein concentration was quantified using the Bradford assay, with bovine serum albumin (BSA) used to establish the standard curve. For the assessment of cysteine protease activity, 5 μg of the protein extract was incubated in an acetate buffer [10 mM sodium acetate, pH 5.0], supplemented with 1 mM dithiothreitol (DTT) in a final volume of 100 μL. The reaction used a fluorogenic peptide substrate, N-benzoyloxycarbonyl-L-phenylalanyl-L-arginine 7-amino-4-methylcoumarin (Z-FR-AMC), at a concentration of 60 μM. Incubation was conducted at 37 °C for 90 min, with relative fluorescence changes measured using a SpectraMax M2e spectrophotometer (Molecular Devices, Sunnyvale, CA, USA). Inhibition assays were performed using three concentrations (33.3, 100, and 300 µM) of the promising candidate and trans-epoxysuccinyl-L-leucylamido(4-guanidino)butane (E-64), each analyzed separately. A control was included using a low DMSO concentration (≤1%). Enzymatic activity was expressed in µmol/min/mg of protein, with residual activity presented as a percentage.

`FC(F)(F)c1ccc(-n2cc(C3=NCCN3)cn2)cc1` [1k, 1-(4-trifluoromethylphenyl)-4-(4,5-dihydro-1H-imidazol-2-yl)-1H-pyrazole]: the IC50 in assay [1] is 72.2 ± 10.3 µM; in assay [2] (Trypanosoma cruzi, 72 h, Dm28c-Luc in Vero cells, mean ± SD, read-out: Intracellular Amastigotes IC50) it was 3.3 ± 0.2 µM; in assay [2] (Trypanosoma cruzi, intracellular amastigotes, 6 − Log10(IC50), read-out: pIC50 (potency) (converted)), 3.98 µM. The IC90 (usually the concentration at which the effect reaches the 90% level) is more than 100 µM in assay [1] and 28.1 ± 0.4 µM in assay [2] (Trypanosoma cruzi, 72 h, Dm28c-Luc in Vero cells, mean ± SD). Further, the “SI (selectivity index = CC50/IC50)” value in assay [2] (CC50 Vero cells / IC50 intracellular amastigotes) came to 73.9. Besides, in assay [2] (hit compound = 5-amino-pyrazole-imidazoline), the “enhancement in anti-T. cruzi activity relative to the hit compound” value came out at 5 fold. Besides, the inhibition (in general, the relative decrease from the control value, in per cent) at 28.8 µM in assay [3] (28.8 µM) was found to be 90%; with T. cruzi (Dm28c-Luc) (Trypanosoma cruzi, Vero, 240 h, 28.8 µM (IC90), 10 days treatment + 10 days washout, read-out: inhibition of parasite load of cell monolayer at 21 dpi), 92%. Moreover, the inhibition at 57.6 µM in assay [3] (57.6 µM) was 94%. In addition, the “parasite load of cell monolayer at 21 dpi (luminescence)” value in the assay on T. cruzi (Dm28c-Luc) (28.8 µM) is 4 × 10^4 A.L.U; with T. cruzi (Dm28c-Luc) (57.6 µM), 1.1 × 10^4 A.L.U. The “sterility of cultures in reversibility assay” value with T. cruzi (Dm28c-Luc) (10 days treatment, tested conditions) is “failed to achieve sterility”. Also, in assay [4], the “inhibition of cysteine protease activity” value is 3.76%.
